Columns and labels:
Type in all cases: cell-based
[1] = test system: cooling water taken from a water cooling tower; assay: Aqueous system model (annular reactor): number of bacterial cells in water at inlet and outlet (R2A agar); settings: Test Example 4; 15 ppm in cooling water; solvent control also about 10^4
Method: (§1) Biofilm formation inhibitory activity of p-toluquinone (Tokyo Kasei) was evaluated by an aqueous system model using an annular reactor (Art Science Co., Ltd.) having a 100 mL-volume culture tank. In the culture tank of the annular reactor, a cylindrical rotating body rotating at a speed of 160 rounds per minute was installed. To the rotating body, 12 test pieces were attached in advance. These test pieces were taken out at predetermined time intervals and biofilm formed on the test pieces was quantified. From a water cooling tower provided on a building rooftop and actually used, cooling water was taken and supplied to the annular reactor culture vessel (maintained at 30° C.) at a flow rate of 10 mL per minute; at the same time, an ethanol solution (15 g/L) of p-toluquinone was separately supplied to the annular reactor culture vessel by a syringe pump YSP-201 (manufactured by YMC) at a flow rate of 10 μL per minute (p-toluquinone concentration in cooling water in the culture tank was 15 ppm). The test pieces (n=2) taken out from the culture tank at predetermined time intervals were stained with 0.1% crystal violet, thoroughly washed twice with physiological saline and recovered in ethanol (15 mL). The absorbance (OD570) was measured to obtain the amount of the biofilm formed. […] Thereafter, the number of bacteria cells was measured. […]

[2] = test system: biofilm-forming microbe isolated from cooling water taken from a water cooling tower; assay: Biofilm inhibition test, quinone-based compound and organic solvent (OD570); settings: alone or added as test solution in organic solvent, no addition gave 2.831
Method: A biofilm-forming microbe (microbe providing a OD570 value of 0.3 or more in the test for determining the amount of biofilm in the following section 4-3) isolated from cooling water taken from a water cooling tower was cultured in R2A culture medium at 30° C. for 16 hours while shaking. The turbidity (OD600) of the resultant culture solution was measured. The culture solution was diluted with R2A culture medium to prepare a suspension of 10^3 cfu/mL.
The suspension of a test microbe prepared in the above section 4-1) was added in individual wells of a 96 well microplate in an amount of 150 μL. Thereafter, the test solution prepared in the above section 2) was add and culture was initiated.
The 96 well microplate was subjected to stationary culture performed at 30° C. for 48 hours. The culture solution was removed and the resultant microplate was washed with water. Subsequently, each well was stained with 0.1% crystal violet and 200 μL of ethanol was added. The absorbance (OD570) was measured to obtain the amount of biofilm (BF) formed.

[3] = test system: cooling water taken from a water cooling tower; assay: Aqueous system model (annular reactor): amount of biofilm formed on test pieces (OD570); settings: Test Example 4; 15 ppm in cooling water, 30° C.; solvent control finally beyond 0.7
Method: as §1

With `CC1=CC(=O)C=CC1=O` [Compound a, p-Toluquinone] the “number of bacterial cells at the inlet or outlet of the reactor” value [1] was “about 10^4 cells/mL”, the OD570 ([2]; Toluquinone 10 ppm) was 0.119 and the OD570 ([2]; Toluquinone 20 ppm) was 0.083. The “amount of the biofilm formed (OD570)” value [3] was at most 0.2.
